# According to US7138361B2, “Herbicidal heterocycles” (E. I. du Pont de Nemours and Company, priority 2000, dated 2006):
# Experiments:
# Type in all cases: in vivo
# [1] = tested on: duck salad (Heteranthera limosa); experiment: Test C flooded paddy test; settings: for Ducksalad plant response rating: Flooded Paddy, scale 0 to 100, 0 no effect, 100 complete control; for Plant response rating, Ducksalad: flooded paddy test, scale 0 to 100 (0 no effect, 100 complete control)
# Procedure, shortened: (§1)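 Each species was cultivated to 2 leaves in flooded paddy pots, then treated. After a greenhouse period of 12–14 days, the plants were scored visually relative to controls from 0 (no effect) to 100 (complete control).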
# [2] = tested on: smallflower flatsedge (Cyperus difformis); experiment: Test C flooded paddy test; settings: for Flatsedge plant response rating: Flooded Paddy, scale 0 to 100, 0 no effect, 100 complete control; for Plant response rating, Flatsedge: flooded paddy test, scale 0 to 100 (0 no effect, 100 complete control)
# Procedure, shortened: as §1
# [3] = tested on: barnyardgrass (Echinochloa crus-galli); experiment: Test C flooded paddy test; settings: for Barnyardgrass plant response rating: Flooded Paddy, scale 0 to 100, 0 no effect, 100 complete control; for Plant response rating, Barnyardgrass: flooded paddy test, scale 0 to 100 (0 no effect, 100 complete control)
# Procedure, shortened: as §1
# [4] = tested on: giant foxtail (Setaria faberii); experiment: Test C preemergence; settings: for Plant response rating, Foxtail, Giant: scale 0 to 100, 0 no effect, 100 complete control; for Plant response rating (0 to 100), Foxtail, Giant: visual evaluation after 12 to 14 days
# Excerpt: (§2) Seeds of plant species selected from bermudagrass (Cynodon dactylon), Surinam grass (Brachiaria decumbens), cocklebur (Xanthium strumarium), corn (Zea mays), crabgrass (Digitaria sanguinalis), woolly cupgrass (Eriochloa villosa), giant foxtail (Setaria faberii), goosegrass (Eleusine indica), johnsongrass (Sorghum halepense), kochia (Kochia scoparia), lambsquarters (Chenopodium album), morningglory (Ipomoea hederacea), yellow nutsedge (Cyperus esculentus), pigweed (Amaranthus retroflexus), common ragweed (Ambrosia elatior), soybean (Glycine max) and velvetleaf (Abutilon theophrasti) were planted and treated preemergence with test chemicals formulated in a non-phytotoxic solvent mixture which included a surfactant.
# (§3) At the same time, plants selected from these crop and weed species and also winter barley (Hordeum vulgare), blackgrass (Alopecurus myosuroides), canary grass (Phalaris minor), chickweed (Stellaria media), downy brome (Bromus tectorum), green foxtail (Setaria viridis), Italian ryegrass (Lolium multiflorum), wheat (Triticum aestivum), wild oat (Avena fatua) and windgrass (Apera spica-venti) were treated with postemergence applications of some of the test chemicals formulated in the same manner. Plants ranged in height from 2 to 18 cm (1- to 4-leaf stage) for postemergence treatments. Plant species in the flooded paddy test consisted of rice (Oryza saliva), smallflower flatsedge (Cyperus difformis), duck salad (Heteranthera limosa) and barnyardgrass (Echinochloa crus-galli) grown to the 2-leaf stage for testing. Treated plants and controls were maintained in a greenhouse for 12 to 14 days, after which time all species were compared to controls and visually evaluated. Plant response ratings, summarized in Table C, are based on a scale of 0 to 100 where 0 is no effect and 100 is complete control. A dash (-) response means no test result.
# [5] = tested on: velvetleaf (Abutilon theophrasti); experiment: Test C preemergence; settings: preemergence; for Plant response rating, Velvetleaf: scale 0 to 100, 0 no effect, 100 complete control
# Excerpt: as §2, §3
# [6] = tested on: common ragweed (Ambrosia elatior); experiment: Test C preemergence; settings: preemergence; for Plant response rating, Ragweed, Common: scale 0 to 100, 0 no effect, 100 complete control
# Excerpt: as §2, §3
# [7] = tested on: pigweed (Amaranthus retroflexus); experiment: Test C preemergence; settings: preemergence; for Plant response rating, Pigweed: scale 0 to 100, 0 no effect, 100 complete control
# Excerpt: as §2, §3
# corn (Zea mays) = experiment: Test C preemergence; settings: for Plant response rating, Corn: scale 0 to 100, 0 no effect, 100 complete control; for Plant response rating (0 to 100), Corn: visual evaluation after 12 to 14 days
# Excerpt: as §2, §3
# [8] = tested on: crabgrass (Digitaria sanguinalis); experiment: Test C preemergence; settings: for Plant response rating, Crabgrass: scale 0 to 100, 0 no effect, 100 complete control; for Plant response rating (0 to 100), Crabgrass: visual evaluation after 12 to 14 days
# Excerpt: as §2, §3
# kochia (Kochia scoparia) = experiment: Test C preemergence; settings: for Plant response rating, Kochia: scale 0 to 100, 0 no effect, 100 complete control; for Plant response rating (0 to 100), Kochia: visual evaluation after 12 to 14 days
# Excerpt: as §2, §3
# [9] = tested on: Surinam grass (Brachiaria decumbens); experiment: Test C preemergence; settings: for Plant response rating, Surinam grass: scale 0 to 100, 0 no effect, 100 complete control; for Plant response rating (0 to 100), Surinam grass: visual evaluation after 12 to 14 days
# Excerpt: as §2, §3
# [10] = tested on: morningglory (Ipomoea hederacea); experiment: Test C preemergence; settings: for Plant response rating, Morningglory: scale 0 to 100, 0 no effect, 100 complete control
# Excerpt: as §2, §3
# Nightshade = experiment: Test C preemergence; settings: scale 0 to 100, 0 no effect, 100 complete control
# Excerpt: as §2, §3
# [11] = tested on: bermudagrass (Cynodon dactylon); experiment: Test C preemergence; settings: for Plant response rating, Bermudagrass: scale 0 to 100, 0 no effect, 100 complete control; for Plant response rating (0 to 100 where 0 is no effect and 100 is complete control), Bermudagrass: visual evaluation after 12 to 14 days
# Excerpt: as §2, §3
# soybean (Glycine max) = experiment: Test C preemergence; settings: preemergence; for Plant response rating, Soybean: scale 0 to 100, 0 no effect, 100 complete control
# Excerpt: as §2, §3
# [12] = tested on: woolly cupgrass (Eriochloa villosa); experiment: Test C preemergence; settings: for Plant response rating, Cupgrass, Woolly: scale 0 to 100, 0 no effect, 100 complete control; for Plant response rating (0 to 100), Cupgrass, Woolly: visual evaluation after 12 to 14 days
# Excerpt: as §2, §3
# [13] = tested on: cocklebur (Xanthium strumarium); experiment: Test C preemergence; settings: for Plant response rating, Cocklebur: scale 0 to 100, 0 no effect, 100 complete control; for Plant response rating (0 to 100), Cocklebur: visual evaluation after 12 to 14 days
# Excerpt: as §2, §3
# [14] = tested on: goosegrass (Eleusine indica); experiment: Test C preemergence; settings: for Plant response rating, Goosegrass: scale 0 to 100, 0 no effect, 100 complete control; for Plant response rating (0 to 100), Goosegrass: visual evaluation after 12 to 14 days
# Excerpt: as §2, §3
# [15] = tested on: johnsongrass (Sorghum halepense); experiment: Test C preemergence; settings: for Plant response rating, Johnsongrass: scale 0 to 100, 0 no effect, 100 complete control; for Plant response rating (0 to 100), Johnsongrass: visual evaluation after 12 to 14 days
# Excerpt: as §2, §3
# [16] = tested on: yellow nutsedge (Cyperus esculentus); experiment: Test C preemergence; settings: for Plant response rating, Nutsedge: scale 0 to 100, 0 no effect, 100 complete control
# Excerpt: as §2, §3
# [17] = Rate 500 g/ha, visual evaluation after 12 to 14 days
# [18] = preemergence, Rate 500 g/ha, visual evaluation after 12 to 14 days
structure (smiles),measurement,setting,value
COc1cc(OC)cc(N2CCC(n3ccc(C(C)(C)C)n3)C2=O)c1 (stereo not drawn) [Compound 71],Ducksalad plant response rating,[1]; Rate 250 g/ha,30
same,Ducksalad plant response rating,[1]; Rate 500 g/ha,30
same,"Plant response rating, Ducksalad",[1]; Rate 62 g/ha,0
same,"Plant response rating, Ducksalad",[1]; Rate 125 g/ha,20
same,Flatsedge plant response rating,[2]; Rate 250 g/ha,100
same,Flatsedge plant response rating,[2]; Rate 500 g/ha,100
same,"Plant response rating, Flatsedge",[2]; Rate 62 g/ha,80
same,"Plant response rating, Flatsedge",[2]; Rate 125 g/ha,100
same,Barnyardgrass plant response rating,[3]; Rate 250 g/ha,0
same,Barnyardgrass plant response rating,[3]; Rate 500 g/ha,80
same,"Plant response rating, Barnyardgrass",[3]; Rate 62 g/ha,0
same,"Plant response rating, Barnyardgrass",[3]; Rate 125 g/ha,0
same,"Plant response rating, Foxtail, Giant",[4]; Rate 62 g/ha,0
same,"Plant response rating (0 to 100), Foxtail, Giant","[4]; preemergence, Rate 250 g/ha",0
same,"Plant response rating (0 to 100), Foxtail, Giant","[4]; preemergence, Rate 500 g/ha",100
same,"Plant response rating, Foxtail, Giant","[4]; preemergence, Rate 125 g/ha",90
same,"Plant response rating (0 to 100), Velvetleaf",[5]; [17],0
same,"Plant response rating, Velvetleaf",[5]; Rate 125 g/ha,0
same,"Plant response rating, Velvetleaf",[5]; Rate 250 g/ha,0
same,"Plant response rating (0 to 100), Ragweed, Common",[6]; [17],30
same,"Plant response rating, Ragweed, Common",[6]; Rate 125 g/ha,0
same,"Plant response rating, Ragweed, Common",[6]; Rate 250 g/ha,0
same,"Plant response rating (0 to 100), Pigweed",[7]; [17],100
same,"Plant response rating, Pigweed",[7]; Rate 125 g/ha,0
same,"Plant response rating, Pigweed",[7]; Rate 250 g/ha,100
same,"Plant response rating, Corn",corn (Zea mays); Rate 62 g/ha,0
same,"Plant response rating (0 to 100), Corn","corn (Zea mays); preemergence, Rate 250 g/ha",0
same,"Plant response rating (0 to 100), Corn","corn (Zea mays); preemergence, Rate 500 g/ha",30
same,"Plant response rating, Corn","corn (Zea mays); preemergence, Rate 125 g/ha",0
same,"Plant response rating, Crabgrass",[8]; Rate 62 g/ha,40
same,"Plant response rating (0 to 100), Crabgrass","[8]; preemergence, Rate 250 g/ha",100
same,"Plant response rating (0 to 100), Crabgrass","[8]; preemergence, Rate 500 g/ha",100
same,"Plant response rating, Crabgrass","[8]; preemergence, Rate 125 g/ha",100
same,"Plant response rating, Kochia",kochia (Kochia scoparia); Rate 62 g/ha,80
same,"Plant response rating (0 to 100), Kochia","kochia (Kochia scoparia); preemergence, Rate 250 g/ha",100
same,"Plant response rating (0 to 100), Kochia","kochia (Kochia scoparia); preemergence, Rate 500 g/ha",100
same,"Plant response rating, Kochia","kochia (Kochia scoparia); preemergence, Rate 125 g/ha",90
same,"Plant response rating, Surinam grass",[9]; Rate 62 g/ha,30
same,"Plant response rating (0 to 100), Surinam grass","[9]; preemergence, Rate 250 g/ha",50
same,"Plant response rating (0 to 100), Surinam grass","[9]; preemergence, Rate 500 g/ha",90
same,"Plant response rating, Surinam grass","[9]; preemergence, Rate 125 g/ha",30
same,"Plant response rating, Morningglory",[10]; Rate 62 g/ha,0
same,"Plant response rating (0 to 100), Morningglory",[10]; [18],0
same,"Plant response rating, Morningglory","[10]; preemergence, Rate 125 g/ha",0
same,"Plant response rating, Morningglory","[10]; preemergence, Rate 250 g/ha",0
same,"Plant response rating, Nightshade",Nightshade; Rate 62 g/ha,0
same,"Plant response rating, Nightshade",Nightshade; Rate 125 g/ha,20
same,"Plant response rating, Nightshade",Nightshade; Rate 250 g/ha,30
same,"Plant response rating, Bermudagrass",[11]; Rate 62 g/ha,30
same,"Plant response rating (0 to 100 where 0 is no effect and 100 is complete control), Bermudagrass","[11]; preemergence, Rate 250 g/ha",100
same,"Plant response rating (0 to 100 where 0 is no effect and 100 is complete control), Bermudagrass","[11]; preemergence, Rate 500 g/ha",100
same,"Plant response rating, Bermudagrass","[11]; preemergence, Rate 125 g/ha",90
same,"Plant response rating (0 to 100), Soybean",soybean (Glycine max); [17],0
same,"Plant response rating, Soybean",soybean (Glycine max); Rate 125 g/ha,0
same,"Plant response rating, Soybean",soybean (Glycine max); Rate 250 g/ha,0
same,"Plant response rating, Cupgrass, Woolly",[12]; Rate 62 g/ha,0
same,"Plant response rating (0 to 100), Cupgrass, Woolly","[12]; preemergence, Rate 250 g/ha",100
same,"Plant response rating (0 to 100), Cupgrass, Woolly","[12]; preemergence, Rate 500 g/ha",100
same,"Plant response rating, Cupgrass, Woolly","[12]; preemergence, Rate 125 g/ha",80
same,"Plant response rating, Cocklebur",[13]; Rate 62 g/ha,0
same,"Plant response rating (0 to 100), Cocklebur","[13]; preemergence, Rate 250 g/ha",30
same,"Plant response rating (0 to 100), Cocklebur","[13]; preemergence, Rate 500 g/ha",30
same,"Plant response rating, Cocklebur","[13]; preemergence, Rate 125 g/ha",0
same,"Plant response rating, Goosegrass",[14]; Rate 62 g/ha,30
same,"Plant response rating (0 to 100), Goosegrass","[14]; preemergence, Rate 250 g/ha",100
same,"Plant response rating (0 to 100), Goosegrass","[14]; preemergence, Rate 500 g/ha",100
same,"Plant response rating, Goosegrass","[14]; preemergence, Rate 125 g/ha",90
same,"Plant response rating, Johnsongrass",[15]; Rate 62 g/ha,0
same,"Plant response rating (0 to 100), Johnsongrass","[15]; preemergence, Rate 250 g/ha",0
same,"Plant response rating (0 to 100), Johnsongrass","[15]; preemergence, Rate 500 g/ha",40
same,"Plant response rating, Johnsongrass","[15]; preemergence, Rate 125 g/ha",0
same,"Plant response rating, Nutsedge",[16]; Rate 62 g/ha,0
same,"Plant response rating (0 to 100), Nutsedge",[16]; [18],70
same,"Plant response rating, Nutsedge","[16]; preemergence, Rate 125 g/ha",30
same,"Plant response rating, Nutsedge","[16]; preemergence, Rate 250 g/ha",70
